Measurements as given in ChEMBL document CHEMBL1134992, “Six-membered cyclic ureas as HIV-1 protease inhibitors: a QSAR study based on CODESSA PRO approach. Quantitative structure-activity relationships” (Bioorg Med Chem Lett, 2002).

Target: Human immunodeficiency virus type 1 protease (Human immunodeficiency virus 1, UniProt Q72874)
Test: Inhibitory activity of compound against HIV-1 aspartyl protease.
Settings: read-out: Log 1/Ki (converted)

In the case of `CNc1cc(CN2C(=O)N(Cc3ccc(F)c(NC)c3)[C@H](Cc3ccccc3)[C@H](O)[C@H]2CCc2ccccc2)ccc1F`, the Ki is reported as 4.91 nM.
